Reference: BindingDB's records for PubMed 9463480 (F. Hoffmann-La Roche, 1998)

Target: Metabotropic glutamate receptor 2 (Homo sapiens, UniProt Q14416)
Sequence (Q14416 whole entry): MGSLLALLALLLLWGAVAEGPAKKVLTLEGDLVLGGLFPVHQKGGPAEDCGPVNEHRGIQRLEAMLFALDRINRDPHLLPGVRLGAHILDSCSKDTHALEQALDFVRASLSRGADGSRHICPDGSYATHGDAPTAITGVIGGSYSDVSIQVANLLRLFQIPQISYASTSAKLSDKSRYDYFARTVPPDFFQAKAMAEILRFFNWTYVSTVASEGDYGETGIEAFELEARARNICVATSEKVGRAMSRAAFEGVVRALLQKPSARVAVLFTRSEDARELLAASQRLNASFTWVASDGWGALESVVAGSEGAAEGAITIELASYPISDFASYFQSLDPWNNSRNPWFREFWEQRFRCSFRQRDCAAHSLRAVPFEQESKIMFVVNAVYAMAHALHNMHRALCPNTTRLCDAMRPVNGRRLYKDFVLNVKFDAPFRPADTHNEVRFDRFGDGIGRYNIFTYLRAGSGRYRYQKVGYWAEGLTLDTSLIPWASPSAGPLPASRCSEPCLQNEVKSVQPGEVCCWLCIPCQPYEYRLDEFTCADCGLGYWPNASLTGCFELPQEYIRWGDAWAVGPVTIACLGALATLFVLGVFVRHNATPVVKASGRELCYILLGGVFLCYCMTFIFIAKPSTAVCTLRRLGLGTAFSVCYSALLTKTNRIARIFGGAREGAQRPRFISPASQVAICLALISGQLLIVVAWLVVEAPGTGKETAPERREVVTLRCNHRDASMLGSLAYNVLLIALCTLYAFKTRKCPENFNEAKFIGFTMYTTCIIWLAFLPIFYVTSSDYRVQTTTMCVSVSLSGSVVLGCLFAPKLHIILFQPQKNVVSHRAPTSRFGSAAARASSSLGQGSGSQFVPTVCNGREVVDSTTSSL

Compound | Ki [nM]
C[C@@](N)(C(=O)O)c1ccc(C(=O)O)cc1 (racemic) | > 10000
C[C@](N)(C(=O)O)C1C[C@@H]1C(=O)O (some centres undefined) [MCCG-I] | > 10000
N[C@@]1(C(=O)O)CC[C@H](C(=O)O)C1 [1S, 3R-ACPD] | 2000
N[C@@H](CCP(=O)(O)O)C(=O)O | > 10000
N[C@H](CP(=O)(O)O)C(=O)O [CAS_23052-80-4] | > 10000
N[C@H](C(=O)O)[C@H]1C[C@H]1C(=O)O [L-CCG-IV] | 70
N[C@H](C(=O)O)C1[C@@H](C(=O)O)[C@@H]1C(=O)O (some centres undefined) [DCG-IV] | 60
NC(Cn1cnc2c(=O)[nH]c(=O)[nH]c21)(C(=O)O)C1CC1C(=O)O (centres undefined) [CAS_5311260] | 10
N[C@@H](Cn1oc(=O)[nH]c1=O)C(=O)O [2-amino-3-(3,5-dioxo[1,2,4]oxadiazolidin-2-yl)propionic acid] | > 10000
